The values below come from ChEMBL document CHEMBL5579808, “Development of 1,5-diarylpyrazoles as EGFR/JNK-2 dual inhibitors: design, synthesis, moleecular docking, and bioactivity evaluation” (Bioorg Med Chem Lett, 2024).

For assay [1], the system named is K562. In words: Growth inhibition of human K562 cells at 100 uM by WST-8 assay relative to control. Type of assay: functional. The settings on record: read-out: GI. (Formazan colour is commonly taken as a measure of viable cells.)
The test system of assay [2] is HeLa. In words: Growth inhibition of human HeLa cells at 100 uM by WST-8 assay relative to control. Type of assay: functional. The settings on record: read-out: GI.
A short description of assay [3]: Growth inhibition of human SUIT-2 cells at 100 uM by WST-8 assay relative to control. The class given is functional. The settings on record: read-out: GI.
The test system of assay [4] is DLD-1. In words: Growth inhibition of human DLD-1 cells at 100 uM by WST-8 assay relative to control. Type of assay: functional. As to conditions: read-out: GI.
The test system of assay [5] is HepG2. Briefly: Growth inhibition of human HepG2 cells at 100 uM by WST-8 assay relative to control. Type of assay: functional. As to conditions: read-out: GI.
For assay [6], the system named is DLD-1. In words: Antiproliferative activity against human DLD-1 cells by WST-8 assay. The class given is functional, cell-based.
The subject of assay [7] is HepG2. In words: Antiproliferative activity against human HepG2 cells by WST-8 assay. The class given is functional, cell-based.
The test system of assay [8] is HeLa. In words: Antiproliferative activity against human HeLa cells by WST-8 assay. Type of assay: functional, cell-based.
The target in assay [9] is Mitogen-activated protein kinase 9 (Homo sapiens, UniProt P45984). In words: Inhibition of JNK2 (unknown origin) incubated for 90 mins by ELISA. Background: ELISA stands for enzyme-linked immunosorbent assay.
Assay [10] addresses Epidermal growth factor receptor (Mus musculus, UniProt Q01279). Briefly: Inhibition of recombinant mouse EGFR by ELISA.
In assay [11] the test system is K562. Briefly: Antiproliferative activity against human K562 cells by WST-8 assay. The class given is functional, cell-based.
Assay [12] can be described thus: Antiproliferative activity against human SUIT-2 cells by WST-8 assay. The class given is functional, cell-based.

pIC50: −log10 of the molar value. Calls of active or inactive are those of the source. No cut-off for these calls is given here. Some results are limits rather than exact numbers.

Sequence of Epidermal growth factor receptor (Q01279 whole entry): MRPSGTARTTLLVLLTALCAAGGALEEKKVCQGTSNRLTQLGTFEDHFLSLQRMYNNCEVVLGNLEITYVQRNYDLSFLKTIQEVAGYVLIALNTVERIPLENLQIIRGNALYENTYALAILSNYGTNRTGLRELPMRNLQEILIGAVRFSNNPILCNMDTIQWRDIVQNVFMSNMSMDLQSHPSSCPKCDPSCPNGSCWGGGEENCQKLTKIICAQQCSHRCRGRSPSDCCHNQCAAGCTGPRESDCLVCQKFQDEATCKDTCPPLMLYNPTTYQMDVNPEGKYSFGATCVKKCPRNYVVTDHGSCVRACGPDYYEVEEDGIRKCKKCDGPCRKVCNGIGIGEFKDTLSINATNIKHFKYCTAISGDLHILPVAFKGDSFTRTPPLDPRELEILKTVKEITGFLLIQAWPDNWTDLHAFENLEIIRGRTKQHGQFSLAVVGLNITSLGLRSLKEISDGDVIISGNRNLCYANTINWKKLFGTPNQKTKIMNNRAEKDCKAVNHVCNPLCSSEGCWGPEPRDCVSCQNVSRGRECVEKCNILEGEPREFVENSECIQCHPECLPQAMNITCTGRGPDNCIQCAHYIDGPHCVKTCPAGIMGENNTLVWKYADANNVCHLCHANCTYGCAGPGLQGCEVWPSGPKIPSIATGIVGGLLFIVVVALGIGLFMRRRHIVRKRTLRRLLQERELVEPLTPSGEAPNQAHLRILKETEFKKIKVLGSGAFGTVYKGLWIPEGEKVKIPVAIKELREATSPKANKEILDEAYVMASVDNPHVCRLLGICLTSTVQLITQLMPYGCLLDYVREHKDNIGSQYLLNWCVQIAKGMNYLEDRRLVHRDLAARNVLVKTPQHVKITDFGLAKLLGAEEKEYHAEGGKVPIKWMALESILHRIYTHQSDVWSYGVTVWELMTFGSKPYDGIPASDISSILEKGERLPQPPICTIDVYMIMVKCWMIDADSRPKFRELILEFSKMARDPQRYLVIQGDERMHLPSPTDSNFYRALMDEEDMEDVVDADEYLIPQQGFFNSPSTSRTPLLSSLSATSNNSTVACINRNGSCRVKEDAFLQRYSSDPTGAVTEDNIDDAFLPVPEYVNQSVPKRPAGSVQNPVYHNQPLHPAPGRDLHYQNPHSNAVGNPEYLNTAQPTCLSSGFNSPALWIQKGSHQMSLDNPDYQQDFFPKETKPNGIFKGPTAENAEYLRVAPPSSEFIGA

Consider `COc1ccc(-c2cc(C(=O)Oc3ccc(C=O)cc3OC)nn2-c2ccccc2)cc1OC`, for which the inhibition of growth at 100 µM in the assay on K562 [1] was found to be 58%; in the assay on HeLa [2], 0%; in assay [3], 86%; in the assay with DLD-1 [4] it was 96%; with HepG2 [5] it was 74%.

The term pIC50 denotes −log10 of the IC50, conventionally taken in molar units. In the case of `Cc1ccc(-c2cc(C(=O)Nc3ccc(S(C)(=O)=O)cc3)nn2-c2ccccc2)cc1`, the pIC50 in the assay on DLD-1 [6] was 4.66; in the assay on HepG2 [7], 5.00; in the assay on HeLa [8], 4.20; in assay [9] it was below 3.70; in assay [10], 3.96. In addition, the inhibition of growth at 100 µM in the assay with K562 [1] was found to be 58%; in the assay on HeLa [2], 78%; in [3], 87%; in the assay on DLD-1 [4], 87%; with HepG2 [5], 94%.

`COc1cccc2c1C(=O)c1c(O)c3c(c(O)c1C2=O)C[C@@](O)(C(C)=O)C[C@@H]3O[C@H]1C[C@H](N)[C@H](O)[C@H](C)O1` [DAUNORUBICIN]: the pIC50 is 4.52 in the assay on DLD-1 [6]; 4.66 in the assay on HepG2 [7]; 7.00 with HeLa [8]; 4.88 in the assay on K562 [11]; 5.05 in assay [12]. For the same compound, the inhibition of growth at 100 µM came to 100% with K562 [1]; 100% in the assay on HeLa [2]; 92% in assay [3]; 84.2% in the assay with DLD-1 [4]; 100% in the assay on HepG2 [5].

In the case of `COc1ccc(-c2cc(C(=O)Nc3ccc(S(N)(=O)=O)cc3)nn2-c2ccccc2)cc1`, the inhibition of growth at 100 µM with K562 [1] is 26%; in the assay on HeLa [2], 74%; in assay [3], 78%; with DLD-1 [4], 69%; in the assay on HepG2 [5] it was 26%.

Regarding `COc1cc(C=O)ccc1OC(=O)c1cc(-c2ccc(Cl)cc2)n(-c2ccc(S(N)(=O)=O)cc2)n1`, the figures for the pIC50 (with DLD-1 [6]; with K562 [11]; in assay [12]) were 5.30, 4.77 and 4.30, respectively. The inhibition of growth at 100 µM turned out to be 85% in the assay with K562 [1]; 51% with HeLa [2]; 94% in assay [3]; 97% in the assay with DLD-1 [4]; 54% in the assay with HepG2 [5].

As to `COc1ccc(-c2cc(C(=O)Oc3ccc(C=O)cc3OC)nn2-c2ccccc2)cc1`, the inhibition of growth at 100 µM came out at 61% in the assay on K562 [1]; 30% with HeLa [2]; 91% in assay [3]; 61% in the assay with DLD-1 [4]; 11% in the assay on HepG2 [5].

With `COc1cc(C=O)ccc1OC(=O)c1cc(-c2ccccc2)n(-c2ccc(S(N)(=O)=O)cc2)n1`, the inhibition of growth at 100 µM is 82% in the assay with K562 [1]; 79% in the assay with HeLa [2]; 95% in assay [3]; 100% in the assay on DLD-1 [4]; 84% in the assay with HepG2 [5]. Besides, the pIC50 is 4.42 in the assay on HepG2 [7], 4.57 in the assay with HeLa [8] and 4.76 with K562 [11].

On to `CNC(=O)c1cc(Oc2ccc(NC(=O)Nc3ccc(Cl)c(C(F)(F)F)c3)cc2)ccn1` [SORAFENIB], for which the pIC50 in [10] is 5.46.

Compound `CS(=O)(=O)c1ccc(NC(=O)c2cc(-c3ccccc3)n(-c3ccccc3)n2)cc1` gave a pIC50 with DLD-1 [6] of 4.48. Moreover, the inhibition of growth at 100 µM came out at 32% with K562 [1]; 28% in the assay on HeLa [2]; 86% in [3]; 81% with DLD-1 [4]; 41% with HepG2 [5].

For `COc1ccc(-c2cc(C(=O)Nc3ccc(S(N)(=O)=O)cc3)nn2-c2ccccc2)cc1OC`, the inhibition of growth at 100 µM in the assay with K562 [1] was determined as 58%; with HeLa [2], 51%; in assay [3] it was 91%; with DLD-1 [4] it was 56%; in the assay with HepG2 [5], 90%.

Turning to `COc1cc(C=O)ccc1OC(=O)c1cc(-c2ccccc2)n(-c2ccccc2)n1`, the inhibition of growth at 100 µM in the assay on K562 [1] was found to be 52%; in the assay with HeLa [2] it was 31%; in [3], 91%; in the assay with DLD-1 [4], 71%; in the assay on HepG2 [5] it was 60%.

Consider `COc1ccc(-c2cc(C(=O)Oc3ccc(C=O)cc3OC)nn2-c2ccc(S(N)(=O)=O)cc2)cc1OC`, for which the inhibition of growth at 100 µM in the assay with K562 [1] was determined as 77%; in the assay on HeLa [2], 70%; in assay [3] it was 66%; in the assay on DLD-1 [4] it was 75%; in the assay on HepG2 [5], 92%.

For the compound `NS(=O)(=O)c1ccc(NC(=O)c2cc(-c3ccccc3)n(-c3ccccc3)n2)cc1`, the inhibition of growth at 100 µM is 89% in the assay with K562 [1]; 12% with HeLa [2]; 91% in assay [3]; 64% with DLD-1 [4]; 107% with HepG2 [5]. Also, the results for the pIC50 (in the assay on HepG2 [7]; in assay [12]) were 5.23 and 4.74, respectively.

Turning to `COc1ccc(-c2cc(C(=O)Nc3ccc(S(C)(=O)=O)cc3)nn2-c2ccccc2)cc1OC`, the inhibition of growth at 100 µM in the assay with K562 [1] was 62%; in the assay with HeLa [2] it was 19%; in assay [3], 89%; in the assay with DLD-1 [4], 74%; with HepG2 [5] it was 37%.

Take `COc1cc(C=O)ccc1OC(=O)c1cc(-c2ccc(Cl)cc2)n(-c2ccccc2)n1`: the inhibition of growth at 100 µM in the assay on K562 [1] came to 66%; in the assay with HeLa [2], 51%; in assay [3], 92%; in the assay on DLD-1 [4], 74%; in the assay on HepG2 [5] it was 20%.

In the case of `Cc1ccc(-c2cc(C(=O)Nc3ccc(S(N)(=O)=O)cc3)nn2-c2ccccc2)cc1`, the pIC50 was 4.79 in the assay with DLD-1 [6]; 5.44 in the assay with HepG2 [7]; 4.78 in the assay on HeLa [8]; 4.89 in [12]; below 3.00 in [10]. Moreover, the inhibition of growth at 100 µM with K562 [1] worked out at 65%; in the assay on HeLa [2] it was 0%; in [3] it was 96%; in the assay with DLD-1 [4] it was 99%; in the assay with HepG2 [5], 101%. Also, the inhibition result in assay [9] was “inactive”.

For the compound `COc1ccc(-c2cc(C(=O)Nc3ccc(S(C)(=O)=O)cc3)nn2-c2ccccc2)cc1`, the inhibition of growth at 100 µM in the assay on K562 [1] came out at 41%; in the assay on HeLa [2] it was 76%; in assay [3], 90%; with DLD-1 [4], 64%; in the assay on HepG2 [5] it was 62%. In [12], this compound had a pIC50 of 4.39.

For the compound `NS(=O)(=O)c1ccc(NC(=O)c2cc(-c3ccc(Cl)cc3)n(-c3ccccc3)n2)cc1`, the pIC50 in the assay with DLD-1 [6] is 4.53; in the assay with K562 [11], 4.81; in [9], 5.52; in assay [12], 4.30; in assay [10], 5.57. The inhibition of growth at 100 µM in the assay on K562 [1] is 86%; with HeLa [2], 0%; in [3], 99%; in the assay on DLD-1 [4] it was 94%; in the assay with HepG2 [5] it was 27%.
